Read-outs that look alike come from different tables or passages of the source.
Assays:
[1] = tested on: AKR1C3 expression in A549 cells; assay: AKR1C3 protein levels in A549 cells by western blotting; assay type: cell-based, human; details: 1, 5 and 10 µM, 72 h, western blot relative to β-actin
Protocol: A549 cells were incubated with DMSO or BTK inhibitors (1, 5, and 10 µM) for 72 h, and then total protein was extracted for analysis of AKR1C3 expression by western blotting (WB) as per methods described previously. A representative WB is shown for IBR (A) and ACA (B) incubations, and bars represent AKR1C3 protein levels as determined by densitometry relative to β-actin (n = 3, mean ± SD). Uncropped images from WB are available in Figure S1 in the Supplementary Materials. On the other hand, HCT116-EV and HCT116-C3 cells were treated with increasing concentrations of IBR (C) and ACA (D) for 72 h, and their viability was assessed by MTT assay. Graphs represent a comparison of the dose-response curves for percentages of cell viability in each cell line (n = 6, mean ± SD).

[2] = tested on: T1, recombinant AKR1B10; assay: Reduction of Dau by recombinant AKR1B10 (UHPLC detection of Dau-ol); assay type: biochemical, Human; details: Dau 500 µM, relative to DMSO
T1 construct: made in house; host or cells: Escherichia coli
Protocol: (§1) Human recombinant CREs (CBR1, AKR1A1, 1B1, 1B10, 7A2, and 1C3) were produced by an Escherichia coli expression system as per methods described previously. For the inhibitory assay, each recombinant enzyme, CBR1 (1 µg), AKR1A1 (1 µg), AKR1B1 (5 µg), AKR1B10 (5 µg), AKR7A2 (3 µg), or AKR1C3 (1.5 µg) was incubated with BTK inhibitors at different concentrations (10 and 50 µM) and the substrate Dau (500 µM). For analysis using the Lineweaver-Burk plot, 1.5 µg of recombinant AKR1C3 was incubated with DMSO or BTK inhibitors (1, 5, and 10 µM) and Dau (200, 400, 600, 800, 1000, and 2000 µM). […] The incubations and further metabolite detection were further performed by using ultra-high-performance liquid chromatography (UHPLC) as per methods described previously.

[3] = tested on: A549 cells; assay: Intracellular metabolism of Dau in A549 cells; assay type: cell-based, human; details: 5 h
Protocol: After transfection of HCT116 cells or seeding of A549 cells (25 × 10^3 cells/well) in 24-well plates for 24 h, the medium was harvested and replaced with DMEM supplemented with 10% FBS containing 1 µM daunorubicin, with or without increasing concentrations (1, 5, and 10 μM) of BTK inhibitors. Cells were incubated (37 °C, 5% CO2) for 2.5 and 5 h (transfected HCT116) or only 5 h (A549). Then, the medium was collected and the cells were lysed in lysis buffer (25 mM Tris, 150 mM NaCl, and 1% Triton X-100, pH 7.8) for 15 min at room temperature. The collected medium was combined with cell lysate for further extraction and analysis of metabolites, as per methods described previously.

[4] = target: T2, recombinant AKR1C3 (Homo sapiens, UniProt P42330); assay: Reduction of Dau by recombinant AKR1C3 (UHPLC detection of Dau-ol); assay type: biochemical; details: for reduction of AKR1C3 activity (Dau reduction): Dau 500 µM, relative to DMSO; for Ki: read-out: Ki^app (Morrison equation for tight-binding inhibitors)
T2 construct: made in house; host or cells: Escherichia coli
T2 sequence (P42330 1-323): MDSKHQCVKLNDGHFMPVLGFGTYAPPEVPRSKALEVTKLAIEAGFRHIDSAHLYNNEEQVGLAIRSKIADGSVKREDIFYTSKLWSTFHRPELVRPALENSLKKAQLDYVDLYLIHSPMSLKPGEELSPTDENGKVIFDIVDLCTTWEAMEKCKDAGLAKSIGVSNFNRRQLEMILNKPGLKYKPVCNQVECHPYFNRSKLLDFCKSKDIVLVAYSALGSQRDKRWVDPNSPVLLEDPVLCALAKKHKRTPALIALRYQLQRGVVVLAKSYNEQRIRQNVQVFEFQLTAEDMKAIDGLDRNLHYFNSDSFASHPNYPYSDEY
Protocol: as §1

[5] = recommended dose 200 mg/day, cited from earlier work

For `CC#CC(=O)N1CCC[C@H]1c1nc(-c2ccc(C(=O)Nc3ccccn3)cc2)c2c(N)nccn12` [Acalabrutinib, acalabrutinib], the “effect on expression (protein levels) of AKR1C3” value [1] was “negligible or absence of effects”, the “inhibition of AKR1B10 activity (Dau reduction)” value ([2]; 10 µM BTK inhibitor) was “did not show significant inhibition” and the “inhibition of AKR1B10 activity (Dau reduction)” value ([2]; 50 µM BTK inhibitor) was 9.36% ± 2.53%. For the same molecule, the “reduction of intracellular metabolism of Dau” value (“reduction … of Dau” for short) ([3]; 1 µM BTK inhibitor + 1 µM Dau) was 12.13% ± 5.19%, the “reduction … of Dau” value ([3]; 5 µM BTK inhibitor + 1 µM Dau) was 34.32% ± 7.09% and the “reduction … of Dau” value ([3]; 10 µM BTK inhibitor + 1 µM Dau) was 44.24% ± 9.06%. For the same molecule, the “reduction of AKR1C3 activity (Dau reduction)” value ([4]; 10 µM BTK inhibitor) was 89.55% ± 4%, the “reduction of AKR1C3 activity (Dau reduction)” value ([4]; 50 µM BTK inhibitor) was 96.28% ± 1.58% and the Ki ([4]; AKR1C3 0.005 mg/mL (0.135 μM)) was 451 nM. The Ki ([4]; AKR1C3 0.015 mg/mL (0.405 μM)) was 521 nM, the Ki ([4]; AKR1C3 0.030 mg/mL (0.811 μM)) was 566 nM and the “mode of inhibition (Lineweaver-Burk plot)” value ([4]; recombinant AKR1C3 with increasing Dau) was “non-competitive/mixed”. For the same molecule, the “approximate Cmax” value [5] was ~825 ng/mL and the Cmax ([5]; read-out: approximate Cmax) was ~1800 nM.

Reference: article PMC7764606 (Cancers, 2020)
